Data as given in patent US6358885B1, “Substituted phenylheterocyclic herbicides” (Mississippi State University, priority 1992, dated 2002).

What was measured:
Assay in all cases: Test F preemergence/postemergence greenhouse plant response rating 0 to 100
wild oat = format: in vivo, Avena fatua; details: POSTEMERGENCE, 0 to 100 scale; for Wild oat (1) plant response rating: stage (1) two to three leaves; for Wild oat (2) plant response rating: stage (2) approximately four leaves or initial tillering
From the text: (§1) Compounds evaluated in this test were formulated in a non-phytoxic solvent and applied to the soil surface before plant seedlings emerged (preemergence application) and to plants that were in the one-to-four leaf stage (postemergence application). A sandy loam soil was used for the preemergence test while a mixture of sandy loam soil and greenhouse potting mix in a 60:40 ratio was used for the postemergence test. Test compounds were applied within approximately one day after planting seeds for the preemergence test. Plantings of these crops and weed species were adjusted to produce plants of appropriate size for the postemergence test. All plant species were grown using normal greenhouse practices. Crop and weed species include winter barley (Hordeum vulgare cv. ‘Igri’), blackgrass (Alopecurus myosuroides), chickweed (Stellaria media), downy brome (Bromus tectorum), field violet (Viola arvensis), galium (Galium aparine), green foxtail (Setaria viridis), kochia (Kochia scoparia), lambsquarters (Chenopodium album), speedwell (Veronica persica), rape (Brassica napus), ryegrass (Lolium multiflorum), sugar beet (Beta vulgaris cv. ‘USl’), sunflower (Helianthus annuus cv. ‘Russian Giant’), spring wheat (Triticum aestivum cv. ‘ERA’), winter wheat (Triticum aestivum cv. ‘Talent’), wild buckwheat (Polygonum convolvulus), wild mustard (Sinapis arvensis), wild oat (Avena fatua), and wild radish (Raphanus raphanistrum). Blackgrass, galium and wild oat were treated at two growth stages. […] Treated plants and untreated controls were maintained in a greenhouse for approximately 21 to 28 days, after which all treated plants were compared to untreated controls and visually evaluated. […] A dash response (-) means no test result.

chickweed = format: in vivo, Stellaria media; details: POSTEMERGENCE, 0 to 100 scale
From the text: as §1

field violet = format: in vivo, Viola arvensis; details: POSTEMERGENCE, 0 to 100 scale
From the text: as §1

winter barley = format: in vivo, Hordeum vulgare cv. ‘Igri’; details: POSTEMERGENCE, 0 to 100 scale
From the text: as §1

ryegrass = format: in vivo, Lolium multiflorum; details: POSTEMERGENCE, 0 to 100 scale
From the text: as §1

spring wheat = format: in vivo, Triticum aestivum cv. ‘ERA’; details: POSTEMERGENCE, 0 to 100 scale
From the text: as §1

lambsquarters = format: in vivo, Chenopodium album; details: POSTEMERGENCE, 0 to 100 scale
From the text: as §1

wild radish = format: in vivo, Raphanus raphanistrum; details: POSTEMERGENCE, 0 to 100 scale
From the text: as §1

blackgrass = format: in vivo, Alopecurus myosuroides; details: POSTEMERGENCE, 0 to 100 scale; for Blackgrass (1) plant response rating: stage (1) two to three leaves; for Blackgrass (2) plant response rating: stage (2) approximately four leaves or initial tillering
From the text: as §1

speedwell = format: in vivo, Veronica persica; details: POSTEMERGENCE, 0 to 100 scale
From the text: as §1

winter wheat = format: in vivo, Triticum aestivum cv. ‘Talent’; details: POSTEMERGENCE, 0 to 100 scale
From the text: as §1

green foxtail = format: in vivo, Setaria viridis; details: POSTEMERGENCE, 0 to 100 scale
From the text: as §1

galium = format: in vivo, Galium aparine; details: POSTEMERGENCE, 0 to 100 scale; for Galium (1) plant response rating: stage (1) two to three leaves; for Galium (2) plant response rating: stage (2) approximately four leaves or initial tillering
From the text: as §1

CCOC(=O)COc1cc(-c2nn3c(c2Cl)CCCC3)c(F)cc1Cl [Compound 42]
Wild oat (1) plant response rating (wild oat; Rate 2 g/ha): 0 | Wild oat (2) plant response rating (wild oat; Rate 2 g/ha): 0 | Wild oat (1) plant response rating (wild oat; Rate 4 g/ha): 0 | Wild oat (2) plant response rating (wild oat; Rate 4 g/ha): 0 | Wild oat (1) plant response rating (wild oat; Rate 8 g/ha): 0 | Wild oat (2) plant response rating (wild oat; Rate 8 g/ha): 0 | Wild oat (1) plant response rating (wild oat; Rate 16 g/ha): 0 | Wild oat (2) plant response rating (wild oat; Rate 16 g/ha): 0 | Wild oat (1) plant response rating (wild oat; Rate 32 g/ha): 10 | Wild oat (2) plant response rating (wild oat; Rate 32 g/ha): 10 | Chickweed plant response rating (chickweed; Rate 2 g/ha): 0 | Chickweed plant response rating (chickweed; Rate 4 g/ha): 0 | Chickweed plant response rating (chickweed; Rate 8 g/ha): 0 | Chickweed plant response rating (chickweed; Rate 16 g/ha): 0 | Chickweed plant response rating (chickweed; Rate 32 g/ha): 0 | Field violet plant response rating (field violet; Rate 2 g/ha): 0 | Field violet plant response rating (field violet; Rate 4 g/ha): 0 | Field violet plant response rating (field violet; Rate 8 g/ha): 10 | Field violet plant response rating (field violet; Rate 16 g/ha): 70 | Field violet plant response rating (field violet; Rate 32 g/ha): 80 | Winter Barley plant response rating (winter barley; Rate 2 g/ha): 10 | Winter Barley plant response rating (winter barley; Rate 4 g/ha): 10 | Winter Barley plant response rating (winter barley; Rate 8 g/ha): 10 | Winter Barley plant response rating (winter barley; Rate 16 g/ha): 10 | Winter Barley plant response rating (winter barley; Rate 32 g/ha): 10 | Ryegrass plant response rating (ryegrass; Rate 2 g/ha): 0 | Ryegrass plant response rating (ryegrass; Rate 4 g/ha): 0 | Ryegrass plant response rating (ryegrass; Rate 8 g/ha): 0 | Ryegrass plant response rating (ryegrass; Rate 16 g/ha): 0 | Ryegrass plant response rating (ryegrass; Rate 32 g/ha): 30 | Wheat (Spring) plant response rating (spring wheat; Rate 2 g/ha): 0 | Wheat (Spring) plant response rating (spring wheat; Rate 4 g/ha): 0 | Wheat (Spring) plant response rating (spring wheat; Rate 8 g/ha): 0 | Wheat (Spring) plant response rating (spring wheat; Rate 16 g/ha): 10 | Wheat (Spring) plant response rating (spring wheat; Rate 32 g/ha): 10 | Lambsquarters plant response rating (lambsquarters; Rate 2 g/ha): 55 | Lambsquarters plant response rating (lambsquarters; Rate 4 g/ha): 60 | Lambsquarters plant response rating (lambsquarters; Rate 8 g/ha): 60 | Lambsquarters plant response rating (lambsquarters; Rate 16 g/ha): 100 | Lambsquarters plant response rating (lambsquarters; Rate 32 g/ha): 100 | Wild radish plant response rating (wild radish; Rate 2 g/ha): 0 | Wild radish plant response rating (wild radish; Rate 4 g/ha): 0 | Wild radish plant response rating (wild radish; Rate 8 g/ha): 10 | Wild radish plant response rating (wild radish; Rate 16 g/ha): 20 | Wild radish plant response rating (wild radish; Rate 32 g/ha): 20 | Blackgrass (1) plant response rating (blackgrass; Rate 2 g/ha): 0 | Blackgrass (2) plant response rating (blackgrass; Rate 2 g/ha): 0 | Blackgrass (1) plant response rating (blackgrass; Rate 4 g/ha): 0 | Blackgrass (2) plant response rating (blackgrass; Rate 4 g/ha): 0 | Blackgrass (1) plant response rating (blackgrass; Rate 8 g/ha): 0 | Blackgrass (2) plant response rating (blackgrass; Rate 8 g/ha): 0 | Blackgrass (1) plant response rating (blackgrass; Rate 16 g/ha): 0 | Blackgrass (2) plant response rating (blackgrass; Rate 16 g/ha): 0 | Blackgrass (1) plant response rating (blackgrass; Rate 32 g/ha): 0 | Blackgrass (2) plant response rating (blackgrass; Rate 32 g/ha): 0 | Persn Speedwell plant response rating (speedwell; Rate 2 g/ha): 100 | Persn Speedwell plant response rating (speedwell; Rate 4 g/ha): 100 | Persn Speedwell plant response rating (speedwell; Rate 8 g/ha): 100 | Persn Speedwell plant response rating (speedwell; Rate 16 g/ha): 100 | Persn Speedwell plant response rating (speedwell; Rate 32 g/ha): 100 | Wheat (Winter) plant response rating (winter wheat; Rate 2 g/ha): 0 | Wheat (Winter) plant response rating (winter wheat; Rate 4 g/ha): 0 | Wheat (Winter) plant response rating (winter wheat; Rate 8 g/ha): 10 | Wheat (Winter) plant response rating (winter wheat; Rate 16 g/ha): 10 | Wheat (Winter) plant response rating (winter wheat; Rate 32 g/ha): 10 | Green foxtail plant response rating (green foxtail; Rate 2 g/ha): 0 | Green foxtail plant response rating (green foxtail; Rate 4 g/ha): 0 | Green foxtail plant response rating (green foxtail; Rate 8 g/ha): 0 | Green foxtail plant response rating (green foxtail; Rate 16 g/ha): 10 | Green foxtail plant response rating (green foxtail; Rate 32 g/ha): 60 | Galium (1) plant response rating (galium; Rate 2 g/ha): 0 | Galium (2) plant response rating (galium; Rate 2 g/ha): 0 | Galium (1) plant response rating (galium; Rate 4 g/ha): 0 | Galium (2) plant response rating (galium; Rate 4 g/ha): 0 | Galium (1) plant response rating (galium; Rate 8 g/ha): 40 | Galium (2) plant response rating (galium; Rate 8 g/ha): 30 | Galium (1) plant response rating (galium; Rate 16 g/ha): 40 | Galium (2) plant response rating (galium; Rate 16 g/ha): 60 | Galium (1) plant response rating (galium; Rate 32 g/ha): 60 | Galium (2) plant response rating (galium; Rate 32 g/ha): 60

Fc1cc(Cl)c(OCCCl)cc1-c1nn2c(c1Cl)CCCC2 [Compound 49]
Wild oat (1) plant response rating (wild oat; Rate 2 g/ha): 0 | Wild oat (2) plant response rating (wild oat; Rate 2 g/ha): 0 | Wild oat (1) plant response rating (wild oat; Rate 4 g/ha): 10 | Wild oat (2) plant response rating (wild oat; Rate 4 g/ha): 0 | Wild oat (1) plant response rating (wild oat; Rate 8 g/ha): 20 | Wild oat (2) plant response rating (wild oat; Rate 8 g/ha): 0 | Wild oat (1) plant response rating (wild oat; Rate 16 g/ha): 20 | Wild oat (2) plant response rating (wild oat; Rate 16 g/ha): 0 | Wild oat (1) plant response rating (wild oat; Rate 32 g/ha): 30 | Wild oat (2) plant response rating (wild oat; Rate 32 g/ha): 20 | Chickweed plant response rating (chickweed; Rate 2 g/ha): 0 | Chickweed plant response rating (chickweed; Rate 4 g/ha): 0 | Chickweed plant response rating (chickweed; Rate 8 g/ha): 20 | Chickweed plant response rating (chickweed; Rate 16 g/ha): 50 | Chickweed plant response rating (chickweed; Rate 32 g/ha): 60 | Field violet plant response rating (field violet; Rate 8 g/ha): 60 | Field violet plant response rating (field violet; Rate 16 g/ha): 60 | Field violet plant response rating (field violet; Rate 32 g/ha): 100 | Winter Barley plant response rating (winter barley; Rate 2 g/ha): 0 | Winter Barley plant response rating (winter barley; Rate 4 g/ha): 0 | Winter Barley plant response rating (winter barley; Rate 8 g/ha): 10 | Winter Barley plant response rating (winter barley; Rate 16 g/ha): 10 | Winter Barley plant response rating (winter barley; Rate 32 g/ha): 20 | Ryegrass plant response rating (ryegrass; Rate 2 g/ha): 0 | Ryegrass plant response rating (ryegrass; Rate 4 g/ha): 0 | Ryegrass plant response rating (ryegrass; Rate 8 g/ha): 0 | Ryegrass plant response rating (ryegrass; Rate 16 g/ha): 0 | Ryegrass plant response rating (ryegrass; Rate 32 g/ha): 20 | Wheat (Spring) plant response rating (spring wheat; Rate 2 g/ha): 0 | Wheat (Spring) plant response rating (spring wheat; Rate 4 g/ha): 0 | Wheat (Spring) plant response rating (spring wheat; Rate 8 g/ha): 0 | Wheat (Spring) plant response rating (spring wheat; Rate 16 g/ha): 10 | Wheat (Spring) plant response rating (spring wheat; Rate 32 g/ha): 20 | Lambsquarters plant response rating (lambsquarters; Rate 4 g/ha): 50 | Lambsquarters plant response rating (lambsquarters; Rate 16 g/ha): 50 | Lambsquarters plant response rating (lambsquarters; Rate 32 g/ha): 70 | Wild radish plant response rating (wild radish; Rate 2 g/ha): 0 | Wild radish plant response rating (wild radish; Rate 4 g/ha): 0 | Wild radish plant response rating (wild radish; Rate 8 g/ha): 10 | Wild radish plant response rating (wild radish; Rate 16 g/ha): 100 | Blackgrass (1) plant response rating (blackgrass; Rate 2 g/ha): 0 | Blackgrass (2) plant response rating (blackgrass; Rate 2 g/ha): 0 | Blackgrass (1) plant response rating (blackgrass; Rate 4 g/ha): 0 | Blackgrass (2) plant response rating (blackgrass; Rate 4 g/ha): 0 | Blackgrass (1) plant response rating (blackgrass; Rate 8 g/ha): 0 | Blackgrass (2) plant response rating (blackgrass; Rate 8 g/ha): 0 | Blackgrass (1) plant response rating (blackgrass; Rate 16 g/ha): 0 | Blackgrass (2) plant response rating (blackgrass; Rate 16 g/ha): 0 | Blackgrass (1) plant response rating (blackgrass; Rate 32 g/ha): 0 | Blackgrass (2) plant response rating (blackgrass; Rate 32 g/ha): 10 | Persn Speedwell plant response rating (speedwell; Rate 2 g/ha): 50 | Persn Speedwell plant response rating (speedwell; Rate 4 g/ha): 50 | Persn Speedwell plant response rating (speedwell; Rate 8 g/ha): 60 | Persn Speedwell plant response rating (speedwell; Rate 16 g/ha): 100 | Persn Speedwell plant response rating (speedwell; Rate 32 g/ha): 100 | Wheat (Winter) plant response rating (winter wheat; Rate 2 g/ha): 0 | Wheat (Winter) plant response rating (winter wheat; Rate 4 g/ha): 10 | Wheat (Winter) plant response rating (winter wheat; Rate 8 g/ha): 10 | Wheat (Winter) plant response rating (winter wheat; Rate 16 g/ha): 10 | Wheat (Winter) plant response rating (winter wheat; Rate 32 g/ha): 20 | Green foxtail plant response rating (green foxtail; Rate 2 g/ha): 0 | Green foxtail plant response rating (green foxtail; Rate 4 g/ha): 0 | Green foxtail plant response rating (green foxtail; Rate 8 g/ha): 20 | Green foxtail plant response rating (green foxtail; Rate 16 g/ha): 50 | Green foxtail plant response rating (green foxtail; Rate 32 g/ha): 60 | Galium (1) plant response rating (galium; Rate 2 g/ha): 0 | Galium (2) plant response rating (galium; Rate 2 g/ha): 0 | Galium (1) plant response rating (galium; Rate 4 g/ha): 30 | Galium (2) plant response rating (galium; Rate 4 g/ha): 30 | Galium (1) plant response rating (galium; Rate 8 g/ha): 35 | Galium (2) plant response rating (galium; Rate 8 g/ha): 30 | Galium (1) plant response rating (galium; Rate 16 g/ha): 40 | Galium (2) plant response rating (galium; Rate 16 g/ha): 40 | Galium (1) plant response rating (galium; Rate 32 g/ha): 40 | Galium (2) plant response rating (galium; Rate 32 g/ha): 40
